Assay results: US20250205204A1, “Transcription Factor Brn2 Inhibitory Compounds for Use as Therapeutics” (The University of British Columbia, priority 2021, published 2025)

Legend:
[1] = test system: 42D^ENZR cells; assay: Cell proliferation, BRN2 expressing 42D cells (crystal violet); format: cell-based; settings: about 72 hours
How it was run: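 42D^ENZR (~7000/well) and 16D^CRPC (~5000/well) cells plated, compound added next day from 3× media stocks. After ~72 hours, cells fixed with glutaraldehyde, stained with crystal violet, dye eluted in Sorensen solution; absorbance read at 590 nm.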

[2] = biological target: T1, BRN2 (Homo sapiens, UniProt P20265); assay: Drug Affinity Responsive Target Stability (DARTS) assay; settings: printed in BLI binding column; 42D^ENZR lysate
T1 sequence (P20265 1-443): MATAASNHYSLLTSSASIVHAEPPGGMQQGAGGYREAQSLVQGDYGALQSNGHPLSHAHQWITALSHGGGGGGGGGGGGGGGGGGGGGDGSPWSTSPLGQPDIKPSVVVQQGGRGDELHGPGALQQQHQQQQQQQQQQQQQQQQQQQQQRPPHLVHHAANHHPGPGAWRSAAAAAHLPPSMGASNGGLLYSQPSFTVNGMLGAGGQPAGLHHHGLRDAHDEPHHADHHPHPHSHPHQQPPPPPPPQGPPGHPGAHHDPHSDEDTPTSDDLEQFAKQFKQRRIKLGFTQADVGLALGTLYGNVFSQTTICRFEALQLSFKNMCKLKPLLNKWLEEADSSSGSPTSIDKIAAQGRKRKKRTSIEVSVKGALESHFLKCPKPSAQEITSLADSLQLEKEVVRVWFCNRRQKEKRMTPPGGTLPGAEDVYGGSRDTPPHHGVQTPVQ
Protocol: Step 2: Drug Affinity Responsive Target Stability (DARTS) Assay
This in cell assay provides a yes/no answer to direct interaction between BRN2 inhibitor and protein.
1) Prepare and place the following on ice: • Pronase • TNC 10× • 500 mM Tris-HCl (pH 8.0) • 500 mM NaCl, 100 mM CaCl2 • DMSO • Drug • 10 mL NP40+Protease inhibitor+Phosphatase inhibitor solution (can store in 4° C. and use for up to 4 weeks): • 2 mL NP40 5× • 8 mL ddH2O • 1 PhosphoSTOP™ pill • 200 uL protease inhibitor 50×
2) Remove the growth medium from the cell plate (42D^ENZR) and add 10 mL of cold PBS/vanadate.
3) Scrape the cells. Remove the PBS-cell solution and add in a falcon tube.
4) Name a new 1.5 ml Eppendorf tube and put on ice to pre-chill.
5) Centrifuge the cells at 1500 for 5 minutes at 4° C. Remove supernatant and re-suspend the cells in 600 uL NP40 lysis buffer by pipetting up and down. If the cell pellet is small use less volume, for example 300 μl)
6) Transfer the lysing cells into the pre-chilled Eppendorf tube. Incubate on ice for 20 minutes. If not continuing the DARTS on the same day, you can put the lysate in −30 and work on it later.
Preparing Cell Lysates for DARTS:
7) Centrifuge the tube at maximum speed for 25-30 minutes at 4° C.
8) Discard the pellet (either transfer the supernatant in a new tube or just take out the pellet). […]
20) The samples are ready for Western blot gel running. […]

## O=C1/C(=N\Nc2nc3ccccc3s2)Cc2ccccc21 [7-62, (Z)-2-(2-(benzo[d]thiazol-2-yl)hydrazineylidene)-2,3-dihydro-1H-inden-1-one]
[1]; 42D (express BRN2) versus 16D (no BRN2) cells, result in words
  Growth Specificity: Specific to 42D
[1]; 42D cells, proliferation, read-out: 42D IC50
  IC50: 1 µM
[2]
  binding observed using DARTS assay: Strong binding observed using DARTS assay
